Source: publication PMC4104029, “Mechanism of Action of Compound-13: An α1-Selective Small Molecule Activator of AMPK” (Chemistry & Biology, 2014)

Molecular target: T1, 6-phosphofructo-1 kinase (PFK1) (Mus musculus, UniProt P47857)
T1 construct: made in house; host or cells: E. coli
Experiment: PFK1 enzyme assay
Format: biochemical
Experimental: Figure 1 The AMP Analog C2 Is a Potent AMPK Activator in Cell-Free Assays with Selectivity for α1 Complexes (A) The structure of the endogenous activator of AMPK, AMP; the AMP mimetic, C2; and the classical AMP mimetic, ZMP, and other AMPK activators are shown. […] (B) Recombinant AMPK complexes (α1β1γ1, α2β1γ1, α1β1γ2, and α1β2γ1) expressed in Spodoptera frugiperda were assayed for allosteric activation by AMP or C2. Results are expressed as the increase in activity relative to controls without ligand and represent the mean ± SD for three independent experiments. (C) Enzymes allosterically regulated by AMP (PFK1 and FBP1) or using AMP as a substrate (AMPD1, AK, and 5′-NT) were assayed in the presence of C2 (≤ 100 μM). Enzymes allosterically regulated by AMP were screened for both agonism and antagonism, the latter in the presence of AMP at ≈ EC50. All enzymes were unaffected by [C2] ≤ 100 μM. Representative data are shown for the effects of AMP and C2 on PFK1 and FBP1 activity. Results are representative of three independent experiments conducted on one enzyme preparation. […]

T1 sequence (P47857 whole entry): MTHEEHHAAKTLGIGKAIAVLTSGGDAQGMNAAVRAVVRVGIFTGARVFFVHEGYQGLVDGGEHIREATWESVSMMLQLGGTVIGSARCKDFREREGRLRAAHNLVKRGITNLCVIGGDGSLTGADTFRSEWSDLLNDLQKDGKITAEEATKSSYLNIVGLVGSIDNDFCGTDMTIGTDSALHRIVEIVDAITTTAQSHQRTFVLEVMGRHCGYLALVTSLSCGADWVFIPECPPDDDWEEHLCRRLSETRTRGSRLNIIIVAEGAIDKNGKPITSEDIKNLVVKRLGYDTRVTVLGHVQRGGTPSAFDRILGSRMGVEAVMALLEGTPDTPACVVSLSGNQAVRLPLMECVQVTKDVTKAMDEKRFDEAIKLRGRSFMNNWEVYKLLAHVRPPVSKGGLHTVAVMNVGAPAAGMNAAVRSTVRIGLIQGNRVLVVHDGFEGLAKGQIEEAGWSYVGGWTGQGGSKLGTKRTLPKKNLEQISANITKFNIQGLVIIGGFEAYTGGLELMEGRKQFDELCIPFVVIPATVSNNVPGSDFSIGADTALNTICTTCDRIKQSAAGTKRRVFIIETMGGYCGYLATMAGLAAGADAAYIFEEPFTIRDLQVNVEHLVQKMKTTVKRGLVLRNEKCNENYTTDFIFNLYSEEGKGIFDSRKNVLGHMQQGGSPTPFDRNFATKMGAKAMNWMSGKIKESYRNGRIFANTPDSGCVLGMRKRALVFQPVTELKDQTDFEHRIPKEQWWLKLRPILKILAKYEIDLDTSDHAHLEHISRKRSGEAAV

Structure (SMILES) | EC50 (read-out: EC50, activation of PFK1) [µM] | effect on PFK1 (concentrations up to 100 μM)
Nc1ncnc2c1ncn2[C@@H]1O[C@H](COP(=O)(O)O)[C@@H](O)[C@H]1O [AMP, reference compound] | 33 | 
O=P(O)(O)c1ccc(-c2cc(O)on2)o1 [Compound C2, 5-(5-hydroxyl-isoxazol-3-yl)-furan-2-phosphonic acid] |  | no effect
